Counter-ions that a name gives are not always drawn.
Legend:
Assay type in all cases: cell-based
adenosine 1 receptor = biological target: T1, adenosine 1 receptor (Homo sapiens, UniProt P30542); assay: Agonist activity against adenosine 1 receptor (CHO cells, forskolin-enhanced cAMP/SPAP reporter); conditions: CHO cells transfected with human receptor; forskolin-enhanced cAMP via SPAP; mean of all the versions tested
T1 sequence (P30542 1-326): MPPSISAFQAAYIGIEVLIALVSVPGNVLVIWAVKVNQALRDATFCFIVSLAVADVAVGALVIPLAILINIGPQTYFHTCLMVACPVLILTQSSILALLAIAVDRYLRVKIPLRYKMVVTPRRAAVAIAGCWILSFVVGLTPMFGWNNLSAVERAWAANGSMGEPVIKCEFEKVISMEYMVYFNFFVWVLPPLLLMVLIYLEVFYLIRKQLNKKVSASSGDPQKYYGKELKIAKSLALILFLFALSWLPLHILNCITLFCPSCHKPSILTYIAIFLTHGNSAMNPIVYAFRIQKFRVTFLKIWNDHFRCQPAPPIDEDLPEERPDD
Experimental: (§1) (1) Agonist activity against adenosine 2a, adenosine 1 and adenosine 3 receptor subtypes.
(§2) The effect of test compounds was determined by their effects on basal levels of cAMP (A2a) or on forskolin-enhanced cAMP (A1 and A3) as reflected by changes in levels of SPAP.

adenosine 3 receptor = biological target: T2, adenosine 3 receptor (Homo sapiens, UniProt P0DMS8); assay: Agonist activity against adenosine 3 receptor (CHO cells, forskolin-enhanced cAMP/SPAP reporter); conditions: CHO cells transfected with human receptor; forskolin-enhanced cAMP via SPAP; mean of all the versions tested
T2 sequence (P0DMS8 1-318): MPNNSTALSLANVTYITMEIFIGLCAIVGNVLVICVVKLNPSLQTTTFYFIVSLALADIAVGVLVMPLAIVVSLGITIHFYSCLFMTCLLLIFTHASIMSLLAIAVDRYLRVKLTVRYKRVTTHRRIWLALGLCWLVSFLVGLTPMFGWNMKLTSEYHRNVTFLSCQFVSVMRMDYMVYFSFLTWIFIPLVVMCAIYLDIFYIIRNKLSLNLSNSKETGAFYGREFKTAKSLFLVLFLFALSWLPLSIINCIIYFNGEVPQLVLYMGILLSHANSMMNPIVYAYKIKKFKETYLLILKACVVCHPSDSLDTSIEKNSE
Experimental: as §1, §2

adenosine 2a receptor = adenosine 2a receptor (Homo sapiens, UniProt P29274); assay: Agonist activity against adenosine 2a receptor (CHO cells, cAMP/SPAP reporter); conditions: CHO cells transfected with human receptor; basal cAMP via SPAP; mean of all the versions tested
Sequence of adenosine 2a receptor (P29274 whole entry): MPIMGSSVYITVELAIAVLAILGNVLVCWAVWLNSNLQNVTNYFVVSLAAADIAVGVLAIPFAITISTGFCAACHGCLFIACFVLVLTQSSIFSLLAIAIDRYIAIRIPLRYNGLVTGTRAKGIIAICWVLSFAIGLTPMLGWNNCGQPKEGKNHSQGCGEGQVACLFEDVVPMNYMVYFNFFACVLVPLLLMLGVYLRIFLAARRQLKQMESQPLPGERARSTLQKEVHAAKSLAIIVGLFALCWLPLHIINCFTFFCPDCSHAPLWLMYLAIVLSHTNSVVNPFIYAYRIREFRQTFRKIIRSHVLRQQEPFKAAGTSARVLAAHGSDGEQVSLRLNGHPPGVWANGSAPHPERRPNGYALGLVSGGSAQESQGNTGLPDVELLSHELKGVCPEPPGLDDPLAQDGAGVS
Experimental: as §1, §2

## CCn1nnc(C2OC(n3cnc4c(NCCC5CCCCC5)nc(NC5CCNC5)nc43)C(O)C2O)n1 [Example 72, (2R,3R,4S,5R)-2-[6-(2-Cyclohexyl-ethylamino)-2-(pyrrolidin-3R-ylamino)-purin-9-yl]-5-(2-ethyl-2H-tetrazol-5-yl)-tetrahydro-furan-3,4-diol Diformate]
Adenosine 1 receptor
  A1 EC50 as a ratio of that of NECA: 848.50
Adenosine 3 receptor
  A3 EC50 as a ratio of that of NECA: >158
Adenosine 2a receptor
  A2a EC50 as a ratio of that of NECA: 6.48

## CCn1nnc(C2OC(n3cnc4c(NCCC5CCCCC5)nc(NC5CCNC5)nc43)C(O)C2O)n1 [Example 73, (2R,3R,4S,5R)-2-[6-(2-Cyclohexyl-ethylamino)-2-(pyrrolidin-3S-ylamino)-purin-9-yl]-5-(2-ethyl-2H-tetrazol-5-yl)-tetrahydro-furan-3,4-diol bis(Formate)]
Adenosine 1 receptor
  A1 EC50 as a ratio of that of NECA: 818.40
Adenosine 3 receptor
  A3 EC50 as a ratio of that of NECA: >171
Adenosine 2a receptor
  A2a EC50 as a ratio of that of NECA: 5.75

## CCn1nnc(C2OC(n3cnc4c(NCCc5ccccc5)nc(NC5CCNC5)nc43)C(O)C2O)n1 [Example 74, (2R,3S,4R,5R)-2-(2-Ethyl-2H-tetrazol-5-yl)-5-[6-phenethylamino-2-(pyrrolidin-3R-ylamino)-purin-9-yl]-tetrahydro-furan-3,4-diol bis(Formate)]
Adenosine 1 receptor
  A1 EC50 as a ratio of that of NECA: 201.70
Adenosine 3 receptor
  A3 EC50 as a ratio of that of NECA: >171
Adenosine 2a receptor
  A2a EC50 as a ratio of that of NECA: 2.79

## CCn1nnc(C2OC(n3cnc4c(NCCc5ccccc5)nc(NC5CCN(Cc6ccccc6)C5)nc43)C(O)C2O)n1.O=CO.O=CO [Example 75, (2R,3R,4S,5R)-2-[2-(1-Benzyl-pyrrolidin-3-ylamino)-6-phenethylamino-purin-9-yl]-5-(2-ethyl-2H-tetrazol-5-yl)-tetrahydro-furan-3,4-diol bis(Formate)]
Adenosine 1 receptor
  A1 EC50 as a ratio of that of NECA: 121.50
Adenosine 3 receptor
  A3 EC50 as a ratio of that of NECA: >174
Adenosine 2a receptor
  A2a EC50 as a ratio of that of NECA: 1.40

## CCn1nnc(C2OC(n3cnc4c(NCc5cccc(I)c5)nc(NC5CCNC5)nc43)C(O)C2O)n1 [Example 76, (2R,3S,4R,5R)-2-(2-Ethyl-2H-tetrazol-5-yl)-5-[6-(3-iodo-benzylamino)-2-(pyrrolidin-3S-ylamino)-purin-9-yl]-tetrahydro-furan-3,4-diol bis(Formate)]
Adenosine 1 receptor
  A1 EC50 as a ratio of that of NECA: 215.30
Adenosine 3 receptor
  A3 EC50 as a ratio of that of NECA: >155
Adenosine 2a receptor
  A2a EC50 as a ratio of that of NECA: 2.93

## CCn1nnc(C2OC(n3cnc4c(NCc5cccc(I)c5)nc(NC5CCN(Cc6ccccc6)C5)nc43)C(O)C2O)n1.O=CO.O=CO [Example 77, (2R,3R,4S,5R)-2-[2-(1-Benzyl-pyrrolidin-3-ylamino)-6-(3-iodo-benzylamino)-purin-9-yl]-5-(2-ethyl-2H-tetrazol-5-yl)-tetrahydro-furan-3,4-diol bis(Formate)]
Adenosine 1 receptor
  A1 EC50 as a ratio of that of NECA: 101.30
Adenosine 3 receptor
  A3 EC50 as a ratio of that of NECA: >200
Adenosine 2a receptor
  A2a EC50 as a ratio of that of NECA: 3.30

## CCn1nnc(C2OC(n3cnc4c(NCCc5ccccc5)nc(NC(CO)Cc5ccccc5)nc43)C(O)C2O)n1 [Example 79, (2R,3S,4R,5R)-2-(2-Ethyl-2H-tetrazol-5-yl)-5-[2-(1S-hydroxymethyl-2-phenyl-ethylamino)-6-phenethylamino-purin-9-yl]-tetrahydro-furan-3,4-diol Formate]
Adenosine 1 receptor
  A1 EC50 as a ratio of that of NECA: 165.30
Adenosine 3 receptor
  A3 EC50 as a ratio of that of NECA: >155
Adenosine 2a receptor
  A2a EC50 as a ratio of that of NECA: 2.40

## CC(C)n1nnc(C2OC(n3cnc4c(NC5CCCC5)nc(NCCN5CCCCC5)nc43)C(O)C2O)n1 [Example 80, (2R,3R,4S,5R)-2-[6-Cyclopentylamino-2-(2-piperidin-1-yl-ethylamino)-purin-9-yl]-yl)-5-(2-isopropyl-2H-tetrazol-5-yl)-tetrahydro-furan-3,4-diol bis(Formate)]
Adenosine 1 receptor
  A1 EC50 as a ratio of that of NECA: 77.10
Adenosine 3 receptor
  A3 EC50 as a ratio of that of NECA: >164
Adenosine 2a receptor
  A2a EC50 as a ratio of that of NECA: 2.37

## CC(C)n1nnc(C2OC(n3cnc4c(NC5CCCC5)nc(NCCN5CCCC5)nc43)C(O)C2O)n1.O=CO.O=CO [Example 81, (2R,3R,4S,5R)-2-[6-Cyclopentylamino-2-(2-pyrrolidin-1-yl-ethylamino)-purin-9-yl]-5-(2-isopropyl-2H-tetrazol-5-yl)-tetrahydro-furan-3,4-diol Diformate]
Adenosine 1 receptor
  A1 EC50 as a ratio of that of NECA: 89.11
Adenosine 3 receptor
  A3 EC50 as a ratio of that of NECA: >156
Adenosine 2a receptor
  A2a EC50 as a ratio of that of NECA: 4.77

## CCn1nnc(C2OC(n3cnc4c(NCC(c5ccccc5)c5ccccc5)nc(NCCNC(=N)N)nc43)C(O)C2O)n1 (stereo not drawn) [Example 82, N-(2-{6-(2,2-Diphenyl-ethylamino)-9-[5R-(2-ethyl-2H-tetrazol-5-yl)-3R,4S-Dihydroxy-tetrahydro-furan-2R-yl]-9H-purin-2-ylamino}-ethyl)-guanidine bis(Trifluoroacetate)]
Adenosine 1 receptor
  A1 EC50 as a ratio of that of NECA: 520.50
Adenosine 3 receptor
  A3 EC50 as a ratio of that of NECA: >189
Adenosine 2a receptor
  A2a EC50 as a ratio of that of NECA: 5.56

## CCn1nnc([C@H]2O[C@@H](n3cnc4c(NCC(c5ccccc5)c5ccccc5)nc(NCCN)nc43)[C@H](O)[C@@H]2O)n1 [Example 83, (2R,3R,4S,5R)-2-[2-(2-Amino-ethylamino)-6-(2,2-diphenyl-ethylamino)-purin-9-yl]-5-(2-ethyl-2H-tetrazol-5-yl)-tetrahydro-furan-3,4-diol]
Adenosine 1 receptor
  A1 EC50 as a ratio of that of NECA: 130.10
Adenosine 3 receptor
  A3 EC50 as a ratio of that of NECA: >362
Adenosine 2a receptor
  A2a EC50 as a ratio of that of NECA: 4.82

## CCn1nnc(C2OC(n3cnc4c(NCC(c5ccccc5)c5ccccc5)nc(NC5CCNC5)nc43)C(O)C2O)n1 [Example 84, (2R,3R,4S,5R)-2-[6-(2,2-Diphenyl-ethylamino)-2-(pyrrolidin-3S-ylamino)-purin-9-yl]-5-(2-ethyl-2H-tetrazol-5-yl)-tetrahydro-furan-3,4-diol bis(Trifluoroacetate)]
Adenosine 1 receptor
  A1 EC50 as a ratio of that of NECA: 490.80
Adenosine 3 receptor
  A3 EC50 as a ratio of that of NECA: >103
Adenosine 2a receptor
  A2a EC50 as a ratio of that of NECA: 2.50

## CCn1nnc(C2OC(n3cnc4c(NCCN5CCOCC5)nc(NC(CO)Cc5ccccc5)nc43)C(O)C2O)n1 [Example 85, (2R,3S,4R,5R)-2-(2-Ethyl-2H-tetrazol-5-yl)-5-[2-(1S-hydroxymethyl-2-phenyl-ethylamino)-6-(2-morpholin-4-yl-ethylamino)-purin-9-yl]-tetrahydro-furan-3,4-diol Formate]
Adenosine 1 receptor
  A1 EC50 as a ratio of that of NECA: 192.90
Adenosine 3 receptor
  A3 EC50 as a ratio of that of NECA: >179
Adenosine 2a receptor
  A2a EC50 as a ratio of that of NECA: 6.11

## CCn1nnc([C@H]2O[C@@H](n3cnc4c(N)nc(NCc5ccccc5CO)nc43)[C@H](O)[C@@H]2O)n1.O=C(O)C(F)(F)F [Example 86, (2R,3R,4S,5R)-2-[6-Amino-2-(2-hydroxymethyl-benzylamino)-purin-9-yl]-5-(2-ethyl-2H-tetrazol-5-yl)-tetrahydro-furan-3,4-diol Trifluoroacetate]
Adenosine 1 receptor
  A1 EC50 as a ratio of that of NECA: 16.90
Adenosine 3 receptor
  A3 EC50 as a ratio of that of NECA: >179
Adenosine 2a receptor
  A2a EC50 as a ratio of that of NECA: 2.16

## CCC(CC)Nc1nc(NC2CCC(N)CC2)nc2c1ncn2C1OC(c2nnn(C)n2)C(O)C1O.O=CO.O=CO [Example 87, (2R,3R,4S,5R)-2-[2-(trans-4-Amino-cyclohexylamino)-6-(1-ethyl-propylamino)-purin-9-yl]-5-(2-methyl-2H-tetrazol-5-yl)-tetrahydro-furan-3,4-diol Diformate]
Adenosine 1 receptor
  A1 EC50 as a ratio of that of NECA: 348.11
Adenosine 3 receptor
  A3 EC50 as a ratio of that of NECA: >320
Adenosine 2a receptor
  A2a EC50 as a ratio of that of NECA: 1.61

## CCC(CC)Nc1nc(NC2CCCC2O)nc2c1ncn2C1OC(c2nnn(C)n2)C(O)C1O.O=CO.O=CO [Example 88, (2R,3R,4S,5R)-2-[6-(1-Ethyl-propylamino)-2-(2R-hydroxy-(R)-cyclopentylamino)-purin-9-yl]-5-(2-methyl-2H-tetrazol-5-yl)-tetrahydro-furan-3,4-diol Diformate]
Adenosine 1 receptor
  A1 EC50 as a ratio of that of NECA: >11750.00
Adenosine 3 receptor
  A3 EC50 as a ratio of that of NECA: >89
Adenosine 2a receptor
  A2a EC50 as a ratio of that of NECA: 4.53

## CCC(CC)Nc1nc(NCCc2ccccn2)nc2c1ncn2C1OC(c2nnn(C)n2)C(O)C1O.O=CO.O=CO [Example 89, (2R,3R,4S,5R)-2-[6-(1-Ethyl-propylamino)-2-(2-pyridin-2-yl-ethylamino)-purin-9-yl]-5-(2-methyl-2H-tetrazol-5-yl)-tetrahydro-furan-3,4-diol Diformate]
Adenosine 1 receptor
  A1 EC50 as a ratio of that of NECA: >9363.00
Adenosine 3 receptor
  A3 EC50 as a ratio of that of NECA: >243
Adenosine 2a receptor
  A2a EC50 as a ratio of that of NECA: 2.22

## CCC(CC)Nc1nc(NCCN2CCCC2)nc2c1ncn2C1OC(c2nnn(C)n2)C(O)C1O.O=CO.O=CO [Example 90, (2R,3R,4S,5R)-2-[6-(1-Ethyl-propylamino)-2-(2-pyrrolidin-1-yl-ethylamino)-purin-9-yl]-5-(2-methyl-2H-tetrazol-5-yl)-tetrahydro-furan-3,4-diol Diformate]
Adenosine 1 receptor
  A1 EC50 as a ratio of that of NECA: 245.90
Adenosine 3 receptor
  A3 EC50 as a ratio of that of NECA: >267
Adenosine 2a receptor
  A2a EC50 as a ratio of that of NECA: 2.41

Source: patent US6528494B2 (priority 1996, dated 2003)
